The subject of one assay is MEK1/2. The experiment in a line: Western blot, cellular pERK1/2 decrease after EGF stimulation. To be noted: MDA-MB-231 cells, compound 10 μM pretreatment 30 min, then EGF 50 ng/mL 15 min. The format is cell-based. Here is the method: (§1) Western Blot Analysis of Potential MEK-5 Inhibitors
(§2) The MDA-MB-231 triple negative breast cancer cell line was pretreated with compounds (10 μM) for 30 min followed by stimulation with epidermal growth factor (EGF, 50 ng/mL) for 15 min. Vehicle-treated cells were pretreated with DMSO for 30 min prior to EGF stimulation for 15 min. Protein visualization and quantification analysis was performed using LI-COR Odyssey Imager. *P<0.05 vs. Vehicle, one-way ANOVA followed by Tukey-Kramer test (n=3)

Another assay deals with T1, MEK5 (Homo sapiens, UniProt Q13163).
T1 construct: The MDA-MB-231 triple negative breast cancer cell line was pretreated with compounds; endogenous in cells; host or cells: MDA-MB-231
T1 sequence (Q13163 1-448): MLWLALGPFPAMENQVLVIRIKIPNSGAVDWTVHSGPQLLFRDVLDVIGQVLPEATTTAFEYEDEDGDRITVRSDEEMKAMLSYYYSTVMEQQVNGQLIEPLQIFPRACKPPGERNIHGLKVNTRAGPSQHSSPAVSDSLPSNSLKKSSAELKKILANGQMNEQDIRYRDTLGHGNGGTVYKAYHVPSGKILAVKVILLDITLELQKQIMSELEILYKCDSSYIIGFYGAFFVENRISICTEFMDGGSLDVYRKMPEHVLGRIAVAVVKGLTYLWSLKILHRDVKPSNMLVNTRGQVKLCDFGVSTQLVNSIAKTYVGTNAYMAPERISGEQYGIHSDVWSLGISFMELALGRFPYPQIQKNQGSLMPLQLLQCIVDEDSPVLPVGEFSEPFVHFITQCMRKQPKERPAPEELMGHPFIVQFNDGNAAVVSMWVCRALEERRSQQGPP
The experiment in a line: Western blot, cellular pERK5 decrease after EGF stimulation. To be noted: MDA-MB-231 cells, compound 10 μM pretreatment 30 min, then EGF 50 ng/mL 15 min. The format is cell-based. Here is the method:
as §1, §2
For orientation: Immunoblotting shows a protein as a band on a membrane.

Consider 5 compounds from patent US10654792B2, “Carboxylic acid ester prodrug inhibitors of MEK” (DUQUESNE UNIVERSITY OF THE HOLY GHOST, priority 2012, dated 2020).

Molecules are shown by their SMILES.

Take `O=C(O)c1ccc(F)c(F)c1Nc1ccccc1` [SC-1-175]: in the assay on MEK1/2, the “cellular pERK1/2 decrease (%)” value was found to be 64.4%. For the same compound, the “cellular pERK5 decrease (%)” value on MEK5 was 2.1%.

As to `CN[C@@H]1C[C@H]2O[C@@](C)([C@@H]1OC)n1c3ccccc3c3c4c(c5c6ccccc6n2c5c31)C(=O)NC4` [staurosporine, reference compound], the “cellular pERK1/2 decrease (%)” value in the assay on MEK1/2 worked out at 98.93%.

`N#CC(=C(/N)Sc1ccccc1N)/C(C#N)=C(\N)Sc1ccccc1N` [U0126, reference compound]: the “cellular pERK1/2 decrease (%)” value with MEK1/2 is listed as 99.72%. Moreover, at MEK5, the “cellular pERK5 decrease (%)” value is reported as 0.28%.

As to `COC(=O)c1ccc(F)c(F)c1Nc1ccc(I)cc1F` [SC-1-72 Ester], the “cellular pERK1/2 decrease (%)” value with MEK1/2 worked out at 98.5%. In addition, the “cellular pERK5 decrease (%)” value on MEK5 turned out to be 20.1%.

Take `O=C(O)c1ccc(F)c(F)c1Nc1ccc(I)cc1F` [SC-1-148, 3,4-Difluoro-2-((2-fluoro-4-iodophenyl)amino)benzoic Acid]: in the assay with MEK1/2, the “cellular pERK1/2 decrease (%)” value was 98.5%. Moreover, the “cellular pERK5 decrease (%)” value on MEK5 is listed as 20.1%.
